Reference: patent US20100105727A1, “NOVEL BENZAMIDE DERIVATIVES AND PROCESS FOR THE PREPARTION THEREOF” (DONG-A-PHARM. CO., LTD., priority 2007, published 2010)
pIC50: −log10 of the molar value. Where two headings read alike, the source gives them in different places.

Experiments:
[1] = biological target: T1, human 5-HT4 receptor (Homo sapiens, UniProt Q13639); test: Binding affinity of compounds for 5-HT4 receptor (radioligand displacement, membrane lysates of COS-7 cells); settings: inhibition of specific binding of 0.595 nM [H3]-AGR113808; COS-7 cell membrane lysates expressing human 5-HT4 receptor
T1 construct: expressed in transfected cells; host or cells: COS-7
T1 sequence (Q13639 whole entry): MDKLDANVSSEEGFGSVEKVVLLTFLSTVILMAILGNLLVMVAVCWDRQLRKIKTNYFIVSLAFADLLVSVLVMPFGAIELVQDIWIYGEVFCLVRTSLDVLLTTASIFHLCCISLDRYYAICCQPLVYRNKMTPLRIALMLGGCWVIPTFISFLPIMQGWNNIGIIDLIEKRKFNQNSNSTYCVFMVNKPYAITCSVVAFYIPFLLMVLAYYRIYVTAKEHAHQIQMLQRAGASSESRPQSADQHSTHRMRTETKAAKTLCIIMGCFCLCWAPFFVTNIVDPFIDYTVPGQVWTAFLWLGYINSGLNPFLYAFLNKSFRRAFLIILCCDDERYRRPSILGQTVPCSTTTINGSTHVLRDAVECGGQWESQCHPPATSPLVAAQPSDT
Procedure: For this purpose, COS-7 cells expressing the human 5-HT4 receptor were constructed and lysed to obtain cell membrane lysates which were then used in binding assay experiments. For binding assay, the membrane lysates were mixed and incubated with different concentrations of test materials and [H3]-AGR113808. […] After incubation was completed, the reaction products were collected in a GF/B glass fiber filter using a Packard cell harvester, and the bound radioactivity was then determined using a liquid cell scintillation counter (Packard TopCount NXT™, Perkin Elmer). Specific binding of the radioligand to the 5-HT4 receptor was calculated by subtracting the non-specific binding of the radioligand from the total radioligand binding. IC50 was calculated from % inhibition of specific binding of the radioligand to the 5-HT4 receptor, with respect to varying concentrations of the test materials.

[2] = tested on: male ICR mice
Procedure: In order to examine acute toxicity of compounds according to the present invention, the following experiment was carried out.
Over the entire experimental period of 2 weeks, the minimum lethal dose (MLD, mg/kg) of the compound was investigated by the observation of the mortality, body weight and clinical symptoms of animals.

[3] = biological target: T2, hERG potassium channel (Homo sapiens, UniProt Q12809); test: Binding affinity of compounds for hERG receptor ([H3]-Astemizole displacement, HEK-293 membrane lysates); settings: % inhibition of specific binding of 1.5 nM [H3]-Astemizole at 10 μM test material
T2 construct: host or cells: HEK-293
T2 sequence (Q12809 whole entry): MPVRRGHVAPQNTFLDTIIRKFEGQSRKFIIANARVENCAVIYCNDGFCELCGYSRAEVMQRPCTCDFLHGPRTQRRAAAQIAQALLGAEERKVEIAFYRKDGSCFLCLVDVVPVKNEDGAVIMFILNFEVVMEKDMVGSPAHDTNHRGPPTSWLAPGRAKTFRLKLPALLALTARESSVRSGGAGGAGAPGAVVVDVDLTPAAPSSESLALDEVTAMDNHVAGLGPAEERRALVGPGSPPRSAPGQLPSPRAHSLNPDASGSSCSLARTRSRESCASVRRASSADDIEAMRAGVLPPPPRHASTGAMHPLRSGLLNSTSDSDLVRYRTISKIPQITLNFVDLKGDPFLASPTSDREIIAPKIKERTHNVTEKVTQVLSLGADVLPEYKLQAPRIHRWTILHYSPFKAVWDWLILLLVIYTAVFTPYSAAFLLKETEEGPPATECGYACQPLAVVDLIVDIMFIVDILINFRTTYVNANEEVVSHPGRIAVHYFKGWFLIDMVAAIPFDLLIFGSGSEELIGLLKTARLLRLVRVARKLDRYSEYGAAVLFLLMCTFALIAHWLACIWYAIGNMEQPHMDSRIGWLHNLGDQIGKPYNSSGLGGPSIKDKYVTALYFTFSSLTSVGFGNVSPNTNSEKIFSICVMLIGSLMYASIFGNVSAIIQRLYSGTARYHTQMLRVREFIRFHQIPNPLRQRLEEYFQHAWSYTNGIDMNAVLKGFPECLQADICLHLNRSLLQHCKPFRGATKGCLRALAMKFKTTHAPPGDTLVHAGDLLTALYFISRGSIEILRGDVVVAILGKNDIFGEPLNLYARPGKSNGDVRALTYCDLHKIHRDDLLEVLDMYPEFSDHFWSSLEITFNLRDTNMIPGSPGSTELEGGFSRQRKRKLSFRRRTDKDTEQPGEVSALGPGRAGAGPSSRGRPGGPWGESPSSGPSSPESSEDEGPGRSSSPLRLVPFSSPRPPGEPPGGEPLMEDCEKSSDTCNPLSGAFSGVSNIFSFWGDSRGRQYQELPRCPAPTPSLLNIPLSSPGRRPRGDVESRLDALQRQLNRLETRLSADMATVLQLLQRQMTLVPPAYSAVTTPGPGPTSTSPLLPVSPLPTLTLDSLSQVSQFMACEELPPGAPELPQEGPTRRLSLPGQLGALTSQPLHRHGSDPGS
Procedure: Membrane lysates were obtained from mammalian HEK-293 cells expressing the hERG potassium channel and used in binding assay experiments. […] After incubation was completed, the radioactivity bound to the hERG K+ channel was counted. The affinity of each test material for the hERG K+ channel was calculated from % inhibition of specific binding of the radioligand to the hERG K+ channel, resulting from the action of the test material.

[4] = oral, single dose of 1 g/10 mL/kg in 1% hydroxypropylmethylcellulose, 5-week old male ICR mice, observed 2 weeks
[5] = male, ICR, mouse, in vivo, po, 2 weeks

Compound	pIC50 [1]	Minimum lethal dose (MLD, mg/kg) [2, 4] [mg/kg]	Minimum lethal dose (MLD, mg/kg) [2, 5] [mg/kg]	hERG binding affinity (% at 10 μM) [3] [%]
CCOC(=O)N1CCC(CN2CC[C@H](NC(=O)c3cc(Cl)c(N)cc3OC)[C@H](OC)C2)CC1 (relative stereo) [Compound 1, ethyl 4-[(cis-4-(4-amino-5-chloro-2-methoxybenzamido)-3-methoxypiperidin-1-yl)methyl]piperidine-1-carboxylate]	6.64	>1000	–	–
COc1cc(N)c(Cl)cc1C(=O)N[C@H]1CCN(CCC(=O)Nc2cccc3ncccc23)C[C@H]1OC (relative stereo) [Compound 56, cis-4-amino-5-chloro-N-[1-(3-oxo-3-(quinolin-5-yl-amino)propyl)-3-methoxypiperidin-4-yl]-2-methoxybenzamide]	7.96	–	>1000	23
COc1cc(N)c(Cl)cc1C(=O)N[C@H]1CCN(CC2CCN(C(=O)C(C)C)CC2)C[C@H]1OC (relative stereo) [Compound 14, cis-4-amino-5-chloro-N-[1-((1-isobutyrylpiperidin-4-yl)methyl)-3-methoxypiperidin-4-yl]-2-methoxybenzamide]	6.85	–	>1000	–
CCCOC(=O)N1CCC(CN2CC[C@H](NC(=O)c3cc(Cl)c(N)cc3OC)[C@H](OC)C2)CC1 (relative stereo) [Compound 6, propyl 4-[(cis-4-(4-amino-5-chloro-2-methoxybenzamido)-3-methoxypiperidin-1-yl)methyl]piperidine-1-carboxylate]	7.03	>1000	–	–
COc1cc(N)c(Cl)cc1C(=O)N[C@@H]1CCN(CCc2noc(C)n2)C[C@@H]1OC [Compound 55, (3S,4R)-4-amino-5-chloro-N-[1-(2-(5-methyl-1,2,4-oxadiazol-3-yl)ethyl)-3-methoxypiperidin-4-yl]-2-methoxybenzamide]	–	–	–	31
CCOC(=O)N1CCC(CN2CC[C@@H](NC(=O)c3cc(Cl)c(N)cc3OC)[C@@H](OC)C2)CC1 [Compound 2, ethyl 4-[((3S,4R)-4-(4-amino-5-chloro-2-methoxybenzamido)-3-methoxypiperidin-1-yl)methyl]piperidine-1-carboxylate]	7.08	>1000	–	–
COc1cc(N)c(Cl)cc1C(=O)N[C@H]1CCN(CCC(=O)Nc2cc(C)cc(C)n2)C[C@H]1OC (relative stereo) [Compound 59, cis-4-amino-5-chloro-N-[1-(3-oxo-3-(4,6-dimethylpyridin-2-ylamino)propyl)-3-methoxypiperidin-4-yl]-2-methoxybenzamide]	6.85	–	>1000	–
COc1cc(N)c(Cl)cc1C(=O)N[C@H]1CCN(CC2CCN(C(=O)N(C)C)CC2)C[C@H]1OC (relative stereo) [Compound 64, 4-[cis-4-(4-amino-5-chloro-2-methoxybenzoylamino)-3-methoxy-piperidin-1-ylmethyl]-piperidine-1-carboxylic acid dimethylamide]	7.54	–	>1000	–
